Measurements as given in ChEMBL document CHEMBL5634143, “Development of teixobactin analogues containing hydrophobic, non-proteogenic amino acids that are highly potent against multidrug-resistant bacteria and biofilms” (Eur J Med Chem, 2023).
Converted amounts (≈) assume the structure as drawn. The source made the active and inactive calls. The calls are words filed in the database; no cut-off is given here.

How the values were obtained:
[1] = system: Staphylococcus saprophyticus; assay: Antibacterial activity against Staphylococcus saprophyticus ATCC 49453 assessed as inhibition of bacterial growth; assay type: functional
Staphylococcus aureus [2] = assay: Antibacterial activity against Staphylococcus aureus 4299 assessed as inhibition of bacterial growth; assay type: functional
Staphylococcus aureus [3] = assay: Antibacterial activity against methicilin-resistant Staphylococcus aureus 1003 assessed as inhibition of bacterial growth; assay type: functional
[4] = system: Staphylococcus epidermidis; assay: Antibacterial activity against Staphylococcus epidermidis 1457 assessed as inhibition of biofilm formation at 10 ug/ml incubated for 5 hrs by confocal microscopic analysis; assay type: functional, organism-based; conditions: dose 10.0 µg/ml
Bacillus cereus = assay: Antibacterial activity against Bacillus cereus ATCC 11788 assessed as inhibition of bacterial growth; assay type: functional
Staphylococcus aureus [5] = assay: Antibacterial activity against methicilin-resistant Staphylococcus aureus ATCC 700699 assessed as inhibition of bacterial growth; assay type: functional
[6] = system: Staphylococcus epidermidis; assay: Antibacterial activity against Staphylococcus epidermidis 12228 assessed as inhibition of bacterial growth; assay type: functional
[7] = system: Staphylococcus saprophyticus; assay: Antibacterial activity against Staphylococcus saprophyticus ATCC 49907 assessed as inhibition of bacterial growth; assay type: functional
Enterococcus faecium [8] = assay: Antibacterial activity against Vancomycin-resistant Enterococcus […] ATCC 700802 assessed as inhibition of bacterial growth; assay type: functional
Staphylococcus aureus [9] = assay: Bactericidal activity against methicilin-resistant Staphylococcus aureus 21455 assessed as reduction in bacterial growth by measuring minimum bactericidal concentration at 4 times MIC by time-kill kinetic assay; assay type: functional
Staphylococcus aureus [10] = assay: Antibacterial activity against methicilin-resistant Staphylococcus aureus 21455 assessed as inhibition of bacterial growth; assay type: functional
Staphylococcus aureus [11] = assay: Antibacterial activity against Staphylococcus aureus 29213 assessed as inhibition of bacterial growth; assay type: functional
[12] = Hemolytic activity in rabbit erythrocytes assessed as hemolysis at 512 microg/ml relative to control; assay type: toxicity, cell-based, Oryctolagus cuniculus, Erythrocyte; conditions: at 512 µg/mL, read-out: Activity
Enterococcus faecium [13] = assay: Antibacterial activity against Vancomycin-resistant Enterococcus […] ATCC 29212 assessed as inhibition of bacterial growth; assay type: functional; conditions: Enterococcus faecalis
[14] = system: Staphylococcus saprophyticus; assay: Antibacterial activity against Staphylococcus saprophyticus ATCC BAA 750 assessed as inhibition of bacterial growth; assay type: functional
Bacillus subtilis = assay: Antibacterial activity against Bacillus subtilis ATCC 6633 assessed as inhibition of bacterial growth; assay type: functional
Staphylococcus aureus [15] = assay: Antibacterial activity against methicilin-resistant Staphylococcus aureus 42412 assessed as inhibition of bacterial growth; assay type: functional
Staphylococcus aureus [16] = assay: Bactericidal activity against methicilin-resistant Staphylococcus aureus 21455 assessed as inhibition of bacterial growth by time-kill kinetic assay; assay type: functional, organism-based
Staphylococcus aureus [17] = assay: Antibacterial activity against Staphylococcus aureus 15981 assessed as inhibition of biofilm formation at 10 ug/ml incubated for 5 hrs by confocal microscopic analysis; assay type: functional, organism-based; conditions: dose 10.0 µg/ml
Enterococcus faecium [18] = assay: Antibacterial activity against Vancomycin-resistant Enterococcus faecium 1014 assessed as inhibition of bacterial growth; assay type: functional
[19] = system: Staphylococcus saprophyticus; assay: Antibacterial activity against Staphylococcus saprophyticus ATCC 15305 assessed as inhibition of bacterial growth; assay type: functional
Cell membrane [20] = assay: Induction of cell membrane […] in methicilin-resistant Staphylococcus aureus 21455 assessed as increase in fluorescence intensity at 8 times MIC by SYTOX green dye based fluorescence analysis; assay type: cell membranes
Cell membrane [21] = assay: Induction of cell membrane […] in methicilin-resistant Staphylococcus aureus 21455 assessed as increase in fluorescence intensity at 16 times MIC by SYTOX green dye based fluorescence analysis; assay type: cell membranes
Staphylococcus aureus [22] = assay: Bactericidal activity against methicilin-resistant Staphylococcus aureus 21455 assessed as reduction in bacterial colony forming unit at 16 times MIC observed after 8 hrs by time-kill kinetic assay; assay type: functional, organism-based
Staphylococcus aureus [23] = assay: Bactericidal activity against methicilin-resistant Staphylococcus aureus 21455 assessed as reduction in bacterial colony forming unit at 16 times MIC observed after 24 hrs by time-kill kinetic assay; assay type: functional, organism-based
Cell membrane [24] = assay: Induction of cytoplasmic membrane depolarization in methicilin-resistant Staphylococcus aureus 21455 at 8 times MIC by DiSC3(5) dye-based fluorescence assay
Pseudomonas aeruginosa [25] = assay: Antibacterial activity against Pseudomonas aeruginosa ATCC 9027 assessed as inhibition of bacterial growth; assay type: functional
Cell membrane [26] = assay: Induction of cytoplasmic membrane depolarization in methicilin-resistant Staphylococcus aureus 21455 at 16 times MIC by DiSC3(5) dye-based fluorescence assay
Pseudomonas aeruginosa [27] = assay: Antibacterial activity against Pseudomonas aeruginosa DSMZ 1117 assessed as inhibition of bacterial growth; assay type: functional

## CCCC[C@@H]1NC(=O)[C@H](C)NC(=O)[C@H](NC(=O)[C@H](CO)NC(=O)[C@@H](NC(=O)[C@H](NC(=O)[C@@H](CCC(N)=O)NC(=O)[C@H](CO)NC(=O)[C@@H](NC(=O)[C@@H](Cc2ccccc2)NC)[C@@H](C)CC)[C@@H](C)CC)[C@@H](C)CC)[C@H](C)OC(=O)[C@H]([C@@H](C)CC)NC1=O
[1]
  MIC: 0.063 µg/mL (≈ 0.0524 µM)
Staphylococcus aureus [2]
  MIC: 0.25 µg/mL (≈ 0.208 µM)
Staphylococcus aureus [3]
  MIC: 0.5 µg/mL (≈ 0.416 µM)
[4]
  Activity: Active
Bacillus cereus
  MIC: 0.063 µg/mL (≈ 0.0524 µM)
Staphylococcus aureus [5]
  MIC: 0.5 µg/mL (≈ 0.416 µM)
[6]
  MIC: 0.063 µg/mL (≈ 0.0524 µM)
[7]
  MIC: 0.063 µg/mL (≈ 0.0524 µM)
Enterococcus faecium [8]
  MIC: 0.5 µg/mL (≈ 0.416 µM)
Staphylococcus aureus [9]
  MBC: 1 µg/mL (≈ 0.832 µM)
Staphylococcus aureus [10]
  MIC: 0.25 µg/mL (≈ 0.208 µM)
Staphylococcus aureus [11]
  MIC: 0.063 µg/mL (≈ 0.0524 µM)
[12]
  hemolysis at 512 microg/ml: ≤ 2%
Enterococcus faecium [13]
  MIC: 1 µg/mL (≈ 0.832 µM)
[14]
  MIC: 0.063 µg/mL (≈ 0.0524 µM)
Bacillus subtilis
  MIC: 0.063 µg/mL (≈ 0.0524 µM)
Staphylococcus aureus [15]
  MIC: 0.125 µg/mL (≈ 0.104 µM)
Staphylococcus aureus [16]
  Activity: Dose-Dependent Effect
Staphylococcus aureus [17]
  Activity: Active
Enterococcus faecium [18]
  MIC: 1 µg/mL (≈ 0.832 µM)
[19]
  MIC: 0.063 µg/mL (≈ 0.0524 µM)

## CN[C@H](CC(C)C)C(=O)N[C@H]1C(=O)N[C@@H](CC(N)=O)C(=O)N[C@H]2C(=O)N[C@H]3C(=O)N[C@H](C(=O)N[C@H](C(=O)O)c4cc(O)cc(O)c4-c4cc3ccc4O)[C@H](O)c3ccc(c(Cl)c3)Oc3cc2cc(c3O[C@@H]2O[C@H](CO)[C@@H](O)[C@H](O)[C@H]2O[C@H]2C[C@](C)(N)[C@H](O)[C@H](C)O2)Oc2ccc(cc2Cl)[C@H]1O
[4]
  Activity: Active
Staphylococcus aureus [17]
  Activity: Active

## CC[C@H](C)[C@H](NC(=O)[C@@H](Cc1ccccc1)NC)C(=O)N[C@@H](CO)C(=O)N[C@H](CCCNC(=N)N)C(=O)N[C@@H](C(=O)N[C@H](C(=O)N[C@@H](CO)C(=O)N[C@H]1C(=O)N[C@@H](C)C(=O)N[C@@H](C2CCCCC2)C(=O)N[C@@H]([C@@H](C)CC)C(=O)O[C@H]1C)[C@@H](C)CC)[C@@H](C)CC
[1]
  MIC: < 0.063 µg/mL
Staphylococcus aureus [2]
  MIC: 0.063 µg/mL (≈ 0.0502 µM)
Staphylococcus aureus [3]
  MIC: 0.063 µg/mL (≈ 0.0502 µM)
[4]
  Activity: Active
Bacillus cereus
  MIC: 0.063 µg/mL (≈ 0.0502 µM)
Cell membrane [20]
  Activity: Active
Staphylococcus aureus [5]
  MIC: 0.063 µg/mL (≈ 0.0502 µM)
[6]
  MIC: 0.063 µg/mL (≈ 0.0502 µM)
Cell membrane [21]
  Activity: Active
Staphylococcus aureus [22]
  Activity: Active
[7]
  MIC: 0.063 µg/mL (≈ 0.0502 µM)
Enterococcus faecium [8]
  MIC: 0.063 µg/mL (≈ 0.0502 µM)
Staphylococcus aureus [10]
  MIC: 0.25 µg/mL (≈ 0.199 µM)
Staphylococcus aureus [11]
  MIC: 0.063 µg/mL (≈ 0.0502 µM)
Staphylococcus aureus [23]
  Activity: Active
Cell membrane [24]
  Activity: inactive
[12]
  hemolysis at 512 microg/ml: ≤ 2%
Enterococcus faecium [13]
  MIC: 0.063 µg/mL (≈ 0.0502 µM)
Pseudomonas aeruginosa [25]
  MIC: > 32 µg/mL
[14]
  MIC: 0.063 µg/mL (≈ 0.0502 µM)
Bacillus subtilis
  MIC: 0.063 µg/mL (≈ 0.0502 µM)
Cell membrane [26]
  Activity: inactive
Staphylococcus aureus [15]
  MIC: 0.063 µg/mL (≈ 0.0502 µM)
Staphylococcus aureus [16]
  Activity: Dose-Dependent Effect
Pseudomonas aeruginosa [27]
  MIC: > 32 µg/mL
Staphylococcus aureus [17]
  Activity: Active
Enterococcus faecium [18]
  MIC: 0.063 µg/mL (≈ 0.0502 µM)
[19]
  MIC: < 0.063 µg/mL

## CC[C@H](C)[C@H](NC(=O)[C@@H](Cc1ccccc1)NC)C(=O)N[C@@H](CCCNC(=N)N)C(=O)N[C@H](CCC(N)=O)C(=O)N[C@@H](C(=O)N[C@H](C(=O)N[C@@H](CO)C(=O)N[C@H]1C(=O)N[C@@H](C)C(=O)N[C@@H](C2CCCCC2)C(=O)N[C@@H]([C@@H](C)CC)C(=O)O[C@H]1C)[C@@H](C)CC)[C@@H](C)CC
[1]
  MIC: < 0.063 µg/mL
Staphylococcus aureus [2]
  MIC: 0.063 µg/mL (≈ 0.0486 µM)
Staphylococcus aureus [3]
  MIC: 0.063 µg/mL (≈ 0.0486 µM)
Bacillus cereus
  MIC: 0.063 µg/mL (≈ 0.0486 µM)
Staphylococcus aureus [5]
  MIC: 0.063 µg/mL (≈ 0.0486 µM)
[6]
  MIC: 0.063 µg/mL (≈ 0.0486 µM)
[7]
  MIC: 0.063 µg/mL (≈ 0.0486 µM)
Enterococcus faecium [8]
  MIC: 0.063 µg/mL (≈ 0.0486 µM)
Staphylococcus aureus [10]
  MIC: 0.125 µg/mL (≈ 0.0964 µM)
Staphylococcus aureus [11]
  MIC: 0.063 µg/mL (≈ 0.0486 µM)
Enterococcus faecium [13]
  MIC: 0.125 µg/mL (≈ 0.0964 µM)
[14]
  MIC: 0.063 µg/mL (≈ 0.0486 µM)
Bacillus subtilis
  MIC: 0.063 µg/mL (≈ 0.0486 µM)
Staphylococcus aureus [15]
  MIC: 0.063 µg/mL (≈ 0.0486 µM)
Enterococcus faecium [18]
  MIC: 0.063 µg/mL (≈ 0.0486 µM)
[19]
  MIC: < 0.063 µg/mL
